Source: patent US20030078272A1, “Methods of use of fluoroquinolone compounds against ciprofloxacin-resistant and ciprofloxacin-sensitive pathogenic bacteria” (SmithKline Beecham Corporation, priority 1999, published 2003)
≈ marks a conversion by molar mass, not a printed value. Like-named read-outs stand apart in the source and are kept apart here.

How the values were obtained:
Type in all cases: cell-based, Streptococcus pneumoniae
[1] = system: pneumococci; assay: Agar dilution MICs; settings: for MIC50 / MIC90: Streptococcus pneumoniae
Description: (§1) Cultures were maintained at −70° C. in double-strength skim milk (Difco Laboratories, Detroit, Mich.). Gemifloxacin susceptibility powder, disks and E-tests (AB Biodisk, Solna, Sweden) were obtained from SmithKline Beecham Laboratories, Collegeville, Pa., USA.
(§2) These were performed (Jacobs, et al., Clin. Infect. Dis. 15:119-127, 1992 and Clark, et al., J. Clin. Microbiol. 36:3579-3584, 1998) on Mueller-Hinton agar supplemented with 5% sheep blood, incorporating compounds at concentrations from 0.002-8 μg/ml in doubling dilutions. Inocula were prepared by suspending growth from overnight cultures in Mueller-Hinton broth to a turbidity of a 0.5 McFarland standard. Final inocula contained 10^4 organisms/spot. Plates were inoculated with a Steers replicator with 3 mm inoculating pins, and incubated overnight at 35° C. in ambient air. The lowest concentration of antibiotic showing no growth was read as the MIC. Quality control strains—Staphylococcus aureus […] and Streptococcus pneumoniae ATCC 49619—were included in each run.

[2] = system: pneumococci; assay: Microdilution MICs (NCCLS); settings: microdilution (air), 200 strains
Description: (§3) Cultures were maintained at −70° C. in double-strength skim milk (Difco Laboratories, Detroit, Mich.). Gemifloxacin susceptibility powder, disks and E-tests (AB Biodisk, Solna, Sweden) were obtained from SmithKline Beecham Laboratories, Collegeville, Pa., USA. These were determined by the method recommended by the NCCLS, (Methods for Dilution Antimicrobial Susceptibility Tests for Bacteria that Grow Aerobically, 4th Edition, NCCLS, Villanova, Pa., 1997) using cation-adjusted Mueller-Hinton broth (Difco Laboratories) supplemented with 5% lysed defibrinated horse blood. Trays were prepared in-house. Suspensions with a turbidity equivalent to that of a 0.5 McFarland standard were prepared by suspending growth from blood agar plates in 2 ml Mueller-Hinton broth. Suspensions were further diluted 1:10 to obtain a final inoculum (10 μL) containing 5×10^5 CFU/mL. Trays were incubated 20-24 hours in ambient air at 35° C. Standard quality control strains (as above) were included in each run.

[3] = system: pneumococci; assay: E-test MICs; settings: 200 strains
Description: (§4) Cultures were maintained at −70° C. in double-strength skim milk (Difco Laboratories, Detroit, Mich.). Gemifloxacin susceptibility powder, disks and E-tests (AB Biodisk, Solna, Sweden) were obtained from SmithKline Beecham Laboratories, Collegeville, Pa., USA. Standard methodology was used (Clark, et al., J. Clin. Microbiol. 36:3579-3584, 1998). Mueller-Hinton plates supplemented with 5% sheep blood (BBL Microbiology Systems, Cockeysville, Md., USA) were inoculated with a 0.5 McFarland suspension harvested from plates, and E-test strips (AB Biodisk, Solna, Sweden) placed on each. After overnight incubation at 35° C., the MIC was read as the intersect where the ellipse of growth inhibition intersects the strip. E-test MICs were performed both in air and in CO2. E-test MICs were rounded up to the next highest doubling dilution.

[4] = system: pneumococci; assay: Disk diffusion, 5 μg gemifloxacin disks; settings: for zone of inhibition at 5 µg/disc: Streptococcus pneumoniae, 5 μg disk, read-out: zone diameter
Description: as §1
This was by standard NCCLS methodology (Performance Standards for Antimicrobial Disk Susceptibility Tests, 6th Edition, NCCLS, Villanova, Pa., 1997) using 5 μg gemifloxacin disks (BBL) and Mueller-Hinton plates supplemented with 5% sheep blood (BBL), inoculated with a 0.5 McFarland suspension. After overnight incubation in both air and 5% CO2 at 35° C., zone diameters were measured with calipers.

[5] = system: pneumococci; assay: MIC testing, all methods together (agar dilution, microdilution, E-test); settings: agar dilution and microdilution in air, E-test in air and CO2, all strains
Description: as §2
as §3, with “These” for “Cultures were maintained at −70° C. in double-strength skim milk (Difco Laboratories, Detroit, Mich.). Gemifloxacin susceptibility powder, disks and E-tests (AB Biodisk, Solna, Sweden) were obtained from SmithKline Beecham Laboratories, Collegeville, Pa., USA. These”
as §4, with “Standard” for “Cultures were maintained at −70° C. in double-strength skim milk (Difco Laboratories, Detroit, Mich.). Gemifloxacin susceptibility powder, disks and E-tests (AB Biodisk, Solna, Sweden) were obtained from SmithKline Beecham Laboratories, Collegeville, Pa., USA. Standard”

[6] = agar dilution (air), all 200 strains
[7] = agar dilution, 39 ciprofloxacin-resistant strains (ciprofloxacin MIC ≧8.0 μg/ml)
[8] = agar dilution, 161 ciprofloxacin-susceptible strains (ciprofloxacin MIC ≦4.0 μg/ml)

CO/N=C1\CN(c2nc3c(cc2F)c(=O)c(C(=O)O)cn3C2CC2)CC1CN (racemic) [Gemifloxacin, (R,S)-7-(3-aminomethyl-4-methoxyiminopyrrolidin-1-yl)-1-cyclopropyl-6-fluoro-4-oxo-1,4-dihydro-1,8-naphthyridine-3-carboxylic acid]
MIC50 [1, 6]: 0.03 µg/mL (≈ 0.077 µM) | MIC90 [1, 6]: 0.25 µg/mL (≈ 0.642 µM) | MIC50 [1, 7]: 0.25 µg/mL (≈ 0.642 µM) | MIC90 [1, 7]: 0.5 µg/mL (≈ 1.28 µM) | MIC50 [1, 8]: 0.03 µg/mL (≈ 0.077 µM) | MIC90 [1, 8]: 0.03 µg/mL (≈ 0.077 µM) | MIC range [1, 6]: 0.004 to 1.0 µg/mL | MIC range ([1]; agar dilution (air), all 200 strains, listed as gemifloxacin): 0.004 to 1 µg/mL | MIC range [1, 7]: 0.03 to 1 µg/mL | MIC range ([1]; agar dilution, 39 ciprofloxacin-resistant strains (ciprofloxacin MIC ≧8.0 μg/ml), listed as gemifloxacin): 0.03 to 1.0 µg/mL | MIC range [1, 8]: 0.004 to 0.06 µg/mL | MIC50 ([2]; Streptococcus pneumoniae): 0.016 µg/mL (≈ 0.0411 µM) | MIC90 ([2]; Streptococcus pneumoniae): 0.125 µg/mL (≈ 0.321 µM) | MIC range [2]: 0.004 to 0.5 µg/mL | MIC50 ([3]; E-test (CO2)): 0.016 µg/mL (≈ 0.0411 µM) | MIC range ([3]; E-test (CO2)): 0.008 to 0.5 µg/mL | MIC range ([3]; E-test (CO2), listed as gemifloxacin): 0.00 to 0.5 µg/mL | MIC range ([3]; E-test (air)): 0.008 to 0.5 µg/mL | MIC90 ([3]; Streptococcus pneumoniae, E-test (CO2)): 0.25 µg/mL (≈ 0.642 µM) | MIC90 ([3]; Streptococcus pneumoniae, E-test (air)): 0.125 µg/mL (≈ 0.321 µM) | MIC50 ([3]; Streptococcus pneumoniae, E-test (air), read-out: MIC50): 0.016 µg/mL (≈ 0.0411 µM) | zone of inhibition at 5 µg/disc ([4]; in CO2, ciprofloxacin-resistant strains, full range): 18 to 31 mm | zone of inhibition at 5 µg/disc ([4]; in CO2, ciprofloxacin-resistant strains, most strains): 21 to 26 mm | zone of inhibition at 5 µg/disc ([4]; in air, quinolone-resistant strains, most strains): < 31 mm | zone of inhibition at 5 µg/disc ([4]; incubated in CO2, all ciprofloxacin-susceptible strains): ≥ 26 mm | zone of inhibition at 5 µg/disc ([4]; incubated in air, quinolone-susceptible strains): ≥ 28 mm | zone diameter ([4]; most quinolone-susceptible strains): > 25 mm | zone diameter in air wider than in CO2 ([4]; most strains, air versus CO2): 1-3 mm | MIC50s, range over methods [5]: 0.016 to 0.03 µg/mL | MIC90s, range over methods [5]: 0.125 to 0.25 µg/mL | MIC range over all methods [5]: 0.004 to 1.0 µg/mL
